Data taken from ChEMBL document CHEMBL1150275, “Pharmacological and pharmacokinetic characterization of 2-piperazine-alpha-isopropyl benzylamine derivatives as melanocortin-4 receptor antagonists” (Bioorg Med Chem, 2008).
Blank lines part the entries; values can stand above or below the compound they belong to.

Key:
[1] = Ratio of drug level in brain to plasma in mouse at 10 mg/kg, po after 4 hrs; format: ADME, organism-based; set-up: dose 10 mg/kg, route oral
[2] = Dissociation constant, pKa of the compound; format: physicochemical
Caco-2 = experiment: Apparent permeability across human Caco-2 cells; format: ADME, cell-based
[3] = Volume of distribution in mouse at 5 mg/kg, iv and 10 mg/kg, po; format: ADME, organism-based; details: in vivo
[4] = Drug level in mouse brain at 10 mg/kg, po after 4 hrs; format: ADME, organism-based; set-up: dose 10 mg/kg, route oral; details: read-out: Drug uptake
[5] = Cmax in mouse brain at 5 mg/kg, iv and 10 mg/kg, po; format: ADME, organism-based
[6] = Tmax in mouse brain at 5 mg/kg, iv and 10 mg/kg, po; format: ADME, organism-based
Brain [7] = experiment: AUC in mouse brain at 5 mg/kg, iv and 10 mg/kg, po; format: ADME, organism-based; details: in vivo
[8] = Ratio of drug level in brain to plasma in mouse at 5 mg/kg, iv after 1 hr; format: ADME, organism-based; set-up: dose 5 mg/kg, route intravenous
[9] = Ratio of drug level in brain to plasma in mouse at 5 mg/kg, iv after 4 hrs; format: ADME, organism-based; set-up: dose 5 mg/kg, route intravenous
[10] = Ratio of Cmax in brain to plasma in mouse at 5 mg/kg, iv and 10 mg/kg, po; format: ADME, organism-based
[11] = Ratio of AUC in brain to plasma in mouse at 5 mg/kg, iv and 10 mg/kg, po; format: ADME, organism-based
[12] = Drug level in rat brain at 10 mg/kg, po after 6 hrs; format: ADME, organism-based; set-up: dose 10 mg/kg, route oral; details: read-out: Drug uptake
Brain [13] = experiment: AUC in rat brain at 10 mg/kg, po; format: ADME, organism-based; set-up: dose 10 mg/kg, route oral; details: in vivo
[14] = Drug level in LLC tumor bearing C57BL/6J mouse plasma at 20 mg/kg, po twice daily after 2 hrs on day 1 of administration; format: ADME, organism-based; set-up: dose 20 mg/kg, route oral
[15] = Drug level in LLC tumor bearing C57BL/6J mouse plasma at 20 mg/kg, po twice daily after 12 hrs on day 1 of administration; format: ADME, organism-based; set-up: dose 20 mg/kg, route oral
[16] = Drug level in LLC tumor bearing C57BL/6J mouse plasma at 20 mg/kg, po twice daily after 24 hrs; format: ADME, organism-based; set-up: dose 20 mg/kg, route oral
[17] = Drug level in LLC tumor bearing C57BL/6J mouse plasma at 20 mg/kg, po twice daily after 2 hrs on day 4 of administration; format: ADME, organism-based; set-up: dose 20 mg/kg, route oral
[18] = Drug level in LLC tumor bearing C57BL/6J mouse plasma at 20 mg/kg, po twice daily after 12 hrs on day 4 of administration; format: ADME, organism-based; set-up: dose 20 mg/kg, route oral
[19] = Drug level in LLC tumor bearing C57BL/6J mouse plasma at 20 mg/kg, po twice daily after 24 hrs on day 4 of administration measured 14 hrs after last dose; format: ADME, organism-based; set-up: dose 20 mg/kg, route oral
[20] = Drug level in LLC tumor bearing C57BL/6J mouse brain at 20 mg/kg, po twice daily after 2 hrs on day 1 of administration; format: ADME, organism-based; set-up: dose 20 mg/kg, route oral
[21] = Drug level in LLC tumor bearing C57BL/6J mouse brain at 20 mg/kg, po twice daily after 12 hrs on day 1 of administration; format: ADME, organism-based; set-up: dose 20 mg/kg, route oral
[22] = Drug level in LLC tumor bearing C57BL/6J mouse brain at 20 mg/kg, po twice daily after 24 hrs; format: ADME, organism-based; set-up: dose 20 mg/kg, route oral
[23] = Drug level in LLC tumor bearing C57BL/6J mouse brain at 20 mg/kg, po twice daily after 2 hrs on day 4 of administration; format: ADME, organism-based; set-up: dose 20 mg/kg, route oral
[24] = Drug level in LLC tumor bearing C57BL/6J mouse brain at 20 mg/kg, po twice daily after 12 hrs on day of administration; format: ADME, organism-based; set-up: dose 20 mg/kg, route oral
[25] = Drug level in LLC tumor bearing C57BL/6J mouse brain at 20 mg/kg, po twice daily after 24 hrs on day 4 of administration measured 14 hrs after last dose; format: ADME, organism-based; set-up: dose 20 mg/kg, route oral
Brain [26] = experiment: Drug level in LLC tumor bearing C57BL/6J mouse brain at 5 mg/kg, po; format: ADME, organism-based; set-up: dose 5 mg/kg, route oral; details: in vivo
[27] = Drug level in mouse brain at 10 mg/kg, po after 1 hr; format: ADME, organism-based; set-up: dose 10 mg/kg, route oral
[28] = Ratio of drug level in brain to plasma in mouse at 10 mg/kg, po after 1 hr; format: ADME, organism-based; set-up: dose 10 mg/kg, route oral; details: brain and plasma
physchem = details: buffer, pH 7.4
[29] = Drug level in mouse brain at 5 mg/kg, iv after 1 hr; format: ADME, organism-based; set-up: dose 5 mg/kg, route intravenous; details: read-out: Drug uptake
[30] = Drug level in mouse brain at 5 mg/kg, iv after 4 hrs; format: ADME, organism-based; set-up: dose 5 mg/kg, route intravenous; details: read-out: Drug uptake
[31] = Cmax in mouse at 5 mg/kg, iv and 10 mg/kg, po; format: ADME, organism-based; details: in vivo
[32] = Tmax in mouse at 5 mg/kg, iv and 10 mg/kg, po; format: ADME, organism-based; details: in vivo
[33] = AUC in mouse at 10 mg/kg, po; format: ADME, organism-based; set-up: dose 10 mg/kg, route oral; details: plasma
[34] = Oral bioavailability in mouse at 10 mg/kg; format: ADME, organism-based; details: in vivo
[35] = Volume of distribution in rat at 5 mg/kg, iv and 10 mg/kg, po; format: ADME, organism-based; details: in vivo
[36] = Volume of distribution in monkey at 5 mg/kg, iv and 10 mg/kg, po; format: ADME, organism-based, Macaca mulatta; details: rhesus monkey, in vivo
[37] = Volume of distribution in dog at 5 mg/kg, iv and 10 mg/kg, po; format: ADME, organism-based, Canis lupus familiaris; details: in vivo
[38] = Tmax in rat at 5 mg/kg, iv and 10 mg/kg, po; format: ADME, organism-based; details: in vivo
[39] = Tmax in monkey at 5 mg/kg, iv and 10 mg/kg, po; format: ADME, organism-based, Macaca mulatta; details: rhesus monkey, in vivo
[40] = Tmax in dog at 5 mg/kg, iv and 10 mg/kg, po; format: ADME, organism-based, Canis lupus familiaris; details: in vivo
[41] = Cmax in rat at 5 mg/kg, iv and 10 mg/kg, po; format: ADME, organism-based; details: in vivo
[42] = Cmax in monkey at 5 mg/kg, iv and 10 mg/kg, po; format: ADME, organism-based, Macaca mulatta; details: rhesus monkey, in vivo
[43] = Cmax in dog at 5 mg/kg, iv and 10 mg/kg, po; format: ADME, organism-based, Canis lupus familiaris; details: in vivo
[44] = AUC in rat at 10 mg/kg, po; format: ADME, organism-based; set-up: dose 10 mg/kg, route oral; details: plasma
[45] = AUC in monkey at 10 mg/kg, po; format: ADME, organism-based, Macaca mulatta; set-up: dose 10 mg/kg, route oral; details: rhesus monkey, plasma
[46] = AUC in dog at 10 mg/kg, po; format: ADME, organism-based, Canis lupus familiaris; set-up: dose 10 mg/kg, route oral; details: plasma
[47] = Oral bioavailability in rat at 10 mg/kg; format: ADME, organism-based; details: in vivo
[48] = Oral bioavailability in monkey at 10 mg/kg; format: ADME, organism-based, Macaca mulatta; details: rhesus monkey, in vivo
[49] = Oral bioavailability in dog at 10 mg/kg; format: ADME, organism-based, Canis lupus familiaris; details: in vivo
[50] = Cmax in rat brain at 10 mg/kg, po; format: ADME, organism-based; set-up: dose 10 mg/kg, route oral
[51] = Tmax in rat brain at 10 mg/kg, po; format: ADME, organism-based; set-up: dose 10 mg/kg, route oral
[52] = Ratio of Cmax in brain to plasma in rat at 10 mg/kg, po; format: ADME, organism-based; set-up: dose 10 mg/kg, route oral; details: brain and plasma
[53] = Drug level in rat brain at 10 mg/kg, po after 1 hr; format: ADME, organism-based; set-up: dose 10 mg/kg, route oral; details: read-out: Drug uptake
[54] = Drug level in rat brain at 10 mg/kg, po after 4 hrs; format: ADME, organism-based; set-up: dose 10 mg/kg, route oral; details: read-out: Drug uptake
[55] = Ratio of Cmax in brain to plasma in rat at 10 mg/kg, po after 1 hr; format: ADME, organism-based; set-up: dose 10 mg/kg, route oral; details: brain and plasma
[56] = Ratio of Cmax in brain to plasma in rat at 10 mg/kg, po after 4 hrs; format: ADME, organism-based; set-up: dose 10 mg/kg, route oral; details: brain and plasma
[57] = Ratio of AUC in brain to plasma in rat at 10 mg/kg, po; format: ADME, organism-based; set-up: dose 10 mg/kg, route oral; details: brain and plasma

Kp at 4 h [1]: 0.1
pKa [2]: 8.9
Papp (Caco-2): 41 ×10⁻⁶ cm/s
Vd [3]: 4.1 L/kg
concentration at 4 h [4]: 18 ng/g
Cmax [5]: 91 ng/g
Tmax [6]: 18 min
AUC (Brain [7]): 367 ng·h/g
Kp at 1 h [8]: 0.1
Kp at 4 h [9]: 0.1
Kp [10]: 0.1
Kp [11]: 0.15
concentration at 6 h [12]: 41 ng/g
AUC (Brain [13]): 254 ng·h/g
concentration at 2 h [14]: 360 ng/mL
concentration at 12 h [15]: 430 ng/mL
concentration at 24 h [16]: 140 ng/mL
concentration at 2 h [17]: 460 ng/mL
concentration at 12 h [18]: 405 ng/mL
concentration at 14 h [19]: 22 ng/mL
concentration at 2 h [20]: 27 ng/g
concentration at 12 h [21]: 74 ng/g
concentration at 24 h [22]: 11 ng/g
concentration at 2 h [23]: 36 ng/g
concentration at 12 h [24]: 25 ng/g
concentration at 14 h [25]: 4.5 ng/g
Drug uptake (Brain [26]): 2 ng/mL
concentration at 1 h [27]: 19 ng/g
Kp at 1 h [28]: 0.1
logD (physchem): 3.4
SMILES: Cc1ccc(N2CCN(C(=O)[C@H](C)Cc3ccc(Cl)cc3)CC2)c([C@@H](NC(=O)CCN(C)C)C(C)C)c1

Papp (Caco-2): 10 ×10⁻⁶ cm/s
Vd [3]: 5.2 L/kg
concentration at 1 h [29]: 322 ng/g
concentration at 4 h [30]: 175 ng/g
Kp at 1 h [8]: 0.6
Kp at 4 h [9]: 0.8
Cmax [31]: 308 ng/mL
Tmax [32]: 30 min
AUC [33]: 2690 ng·h/mL
bioavailability [34]: 42%
AUC (Brain [13]): 618 ng·h/g
Vd [35]: 7.7 L/kg
Vd [36]: 5.6 L/kg
Vd [37]: 8.7 L/kg
Tmax [38]: 6 h
Tmax [39]: 6.7 h
Tmax [40]: 4 h
Cmax [41]: 195 ng/mL
Cmax [42]: 200 ng/mL
Cmax [43]: 250 ng/mL
AUC [44]: 1290 ng·h/mL
AUC [45]: 2650 ng·h/mL
AUC [46]: 3850 ng·h/mL
bioavailability [47]: 31%
bioavailability [48]: 21%
bioavailability [49]: 37%
Cmax [50]: 52 ng/g
Tmax [51]: 6 h
Kp [52]: 0.27
concentration at 1 h [53]: 6.3 ng/g
concentration at 4 h [54]: 38 ng/g
Kp at 1 h [55]: 0.05
Kp at 4 h [56]: 0.2
Kp [57]: 0.48
logD (physchem): 2.4
SMILES: CC(C)[C@H](NC(=O)CCN(C)C)c1cccc(F)c1N1CCN(C(=O)[C@H](C)Cc2ccc(Cl)cc2)CC1
